Assay results from patent publication US20200170975A1 (Strongbridge Dublin Limited, priority 2018, published 2020).
Read-outs that look alike come from different tables or passages of the source.

Key:
MATE1 = molecular target: T1, MATE1 (Homo sapiens, UniProt Q96FL8)
T1 sequence (Q96FL8 1-570): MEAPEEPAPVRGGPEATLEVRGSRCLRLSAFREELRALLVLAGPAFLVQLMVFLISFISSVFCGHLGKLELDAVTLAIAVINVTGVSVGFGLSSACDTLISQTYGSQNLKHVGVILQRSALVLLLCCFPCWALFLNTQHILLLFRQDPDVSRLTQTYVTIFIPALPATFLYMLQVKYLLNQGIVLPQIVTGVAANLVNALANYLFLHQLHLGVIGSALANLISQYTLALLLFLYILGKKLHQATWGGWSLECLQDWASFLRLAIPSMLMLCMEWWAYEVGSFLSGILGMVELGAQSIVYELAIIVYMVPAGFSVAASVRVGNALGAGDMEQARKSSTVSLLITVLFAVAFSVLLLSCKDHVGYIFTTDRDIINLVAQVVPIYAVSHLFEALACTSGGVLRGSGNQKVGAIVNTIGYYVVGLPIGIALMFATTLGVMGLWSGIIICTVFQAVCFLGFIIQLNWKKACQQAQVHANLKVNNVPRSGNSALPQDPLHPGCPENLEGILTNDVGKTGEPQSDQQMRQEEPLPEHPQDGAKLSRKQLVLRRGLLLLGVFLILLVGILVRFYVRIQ
Procedure: (§1) [^14C]-Metformin (1 mM) was provided as a solid and was prepared in Hank's balanced salt solution (HBSS).
(§2) Cells were plated onto standard 24-well tissue culture plates in cell culture medium 1 to 3 days before the experiment. MATE1 and MATE2-K and control cells were incubated with butyric acid (10 mM) for 24 hours before the experiment to inhibit suppression of the transporter.

MATE2-K = MATE2-K (Homo sapiens, UniProt Q86VL8); settings: [14C]-Metformin 10 μM
Chain of MATE2-K (Q86VL8 1-566 isoform Q86VL8-3): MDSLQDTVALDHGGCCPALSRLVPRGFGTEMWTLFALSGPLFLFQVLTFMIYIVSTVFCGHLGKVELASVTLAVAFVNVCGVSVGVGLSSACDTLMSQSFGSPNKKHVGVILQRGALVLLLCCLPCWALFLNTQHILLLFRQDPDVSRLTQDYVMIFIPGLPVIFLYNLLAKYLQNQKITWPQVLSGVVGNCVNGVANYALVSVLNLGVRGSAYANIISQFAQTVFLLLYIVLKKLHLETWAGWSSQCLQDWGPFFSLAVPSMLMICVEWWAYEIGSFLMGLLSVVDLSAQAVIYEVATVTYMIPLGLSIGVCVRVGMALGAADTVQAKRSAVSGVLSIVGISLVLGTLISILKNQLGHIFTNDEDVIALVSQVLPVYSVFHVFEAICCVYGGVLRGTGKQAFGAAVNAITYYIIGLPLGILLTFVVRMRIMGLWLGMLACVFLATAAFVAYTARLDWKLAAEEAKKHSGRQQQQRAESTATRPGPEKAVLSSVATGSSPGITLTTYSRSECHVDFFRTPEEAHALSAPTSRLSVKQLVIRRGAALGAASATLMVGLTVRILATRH
Procedure: as §1, §2

BCRP = molecular target: T2, BCRP (Homo sapiens, UniProt Q9UNQ0); assay: BCRP inhibition: bidirectional transport of prazosin across MDCKII-BCRP and control MDCKII cells
T2 sequence (Q9UNQ0 1-655): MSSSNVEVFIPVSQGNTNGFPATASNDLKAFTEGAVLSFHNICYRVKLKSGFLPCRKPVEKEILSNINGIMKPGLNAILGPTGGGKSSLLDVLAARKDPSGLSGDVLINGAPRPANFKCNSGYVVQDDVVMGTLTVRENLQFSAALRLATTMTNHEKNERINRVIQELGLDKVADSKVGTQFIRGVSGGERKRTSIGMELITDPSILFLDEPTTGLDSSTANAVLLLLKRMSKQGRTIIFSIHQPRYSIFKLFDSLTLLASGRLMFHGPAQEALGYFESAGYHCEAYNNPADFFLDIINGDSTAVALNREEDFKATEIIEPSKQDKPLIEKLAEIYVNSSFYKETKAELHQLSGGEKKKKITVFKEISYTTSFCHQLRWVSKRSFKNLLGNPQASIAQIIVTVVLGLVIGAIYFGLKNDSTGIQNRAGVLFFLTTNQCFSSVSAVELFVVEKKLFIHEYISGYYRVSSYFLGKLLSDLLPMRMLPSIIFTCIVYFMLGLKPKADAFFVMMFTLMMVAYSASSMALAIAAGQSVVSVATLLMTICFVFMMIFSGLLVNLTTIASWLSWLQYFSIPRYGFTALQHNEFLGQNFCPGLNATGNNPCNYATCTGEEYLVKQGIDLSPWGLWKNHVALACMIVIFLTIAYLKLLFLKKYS
Text: MDCKII P-gp, MDCKII BCRP and control MDCKII cells were purchased from the Netherlands Cancer Institute.

P-gp = P-gp (Homo sapiens, UniProt P08183); assay: P-gp inhibition: bidirectional transport of digoxin across Caco-2 cells
Chain of P-gp (P08183 whole entry): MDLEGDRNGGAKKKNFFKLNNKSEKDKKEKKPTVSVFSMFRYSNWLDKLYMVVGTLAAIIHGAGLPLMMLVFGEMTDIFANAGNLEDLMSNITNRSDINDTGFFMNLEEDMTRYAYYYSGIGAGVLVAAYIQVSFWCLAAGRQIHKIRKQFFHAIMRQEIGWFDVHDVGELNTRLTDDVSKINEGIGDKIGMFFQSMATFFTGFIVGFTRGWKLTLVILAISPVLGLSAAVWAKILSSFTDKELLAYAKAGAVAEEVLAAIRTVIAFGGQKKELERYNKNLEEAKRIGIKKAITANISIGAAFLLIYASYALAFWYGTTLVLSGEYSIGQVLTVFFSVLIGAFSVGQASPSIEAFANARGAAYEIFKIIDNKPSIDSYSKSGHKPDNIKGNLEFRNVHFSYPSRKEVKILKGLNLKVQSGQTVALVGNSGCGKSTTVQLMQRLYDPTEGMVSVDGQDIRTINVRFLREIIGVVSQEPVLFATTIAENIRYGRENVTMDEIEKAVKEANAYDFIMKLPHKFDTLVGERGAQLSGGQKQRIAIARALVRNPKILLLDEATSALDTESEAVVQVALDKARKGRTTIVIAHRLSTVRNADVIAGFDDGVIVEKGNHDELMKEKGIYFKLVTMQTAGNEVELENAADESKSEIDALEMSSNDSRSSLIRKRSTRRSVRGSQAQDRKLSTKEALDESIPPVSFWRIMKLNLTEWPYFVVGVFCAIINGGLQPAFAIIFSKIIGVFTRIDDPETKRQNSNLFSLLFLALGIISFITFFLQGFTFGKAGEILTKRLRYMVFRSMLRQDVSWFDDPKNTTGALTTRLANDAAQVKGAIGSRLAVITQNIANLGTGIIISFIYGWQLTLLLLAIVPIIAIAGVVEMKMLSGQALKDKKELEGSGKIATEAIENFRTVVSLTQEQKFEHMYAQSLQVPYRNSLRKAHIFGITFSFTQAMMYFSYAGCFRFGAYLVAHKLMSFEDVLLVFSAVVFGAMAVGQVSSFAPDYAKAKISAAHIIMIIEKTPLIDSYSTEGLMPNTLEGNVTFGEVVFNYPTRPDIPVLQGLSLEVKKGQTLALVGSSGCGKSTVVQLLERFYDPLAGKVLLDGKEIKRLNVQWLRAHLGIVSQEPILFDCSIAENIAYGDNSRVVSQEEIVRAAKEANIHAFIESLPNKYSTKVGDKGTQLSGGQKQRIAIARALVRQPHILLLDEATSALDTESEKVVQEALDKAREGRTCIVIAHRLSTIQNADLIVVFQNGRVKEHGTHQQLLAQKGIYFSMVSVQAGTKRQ

**Q.** For CCc1nc(N)nc(N)c1-c1ccc(Cl)cc1 [Pyrimethamine], which “% control” value (MATE1; HEK293 cells, inhibitor 0.1 μm) is on record?
**A.** The value was 14.2%.

**Q.** And the “% control” value (MATE2-K; inhibitor 0.3 μM)?
**A.** Its value is 50.6%.

**Q.** With CN/C(=N/CCSCc1nc[nH]c1C)NC#N [Cimetidine] as the compound, how does the “% control” value (MATE1; HEK293 cells, inhibitor 10 μm) read?
**A.** Its value is 19.3%.

**Q.** What about the “Background corrected uptake rate” value (MATE1; HEK293 cells, inhibitor 10 μm) of the same compound?
**A.** Its value is 16.0 pmol/mg/min.

**Q.** What about the “Uptake, MATE1 (Average ± SD)” value (MATE1; MATE1 HEK293 cells, inhibitor 10 μm) of the same compound?
**A.** The value was 85.2 ± 7.8 pmol/mg protein.

**Q.** What about the “Uptake, Control (Average ± SD)” value (MATE1; control HEK293 cells, inhibitor 10 μm) of the same compound?
**A.** The value was 5.20 ± 0.63 pmol/mg protein.

**Q.** And the “Uptake, MATE2-K (Average ± SD)” value (MATE2-K; MATE2-K HEK293 cells, inhibitor 300 μM)?
**A.** The value was 32.3 ± 11.7 pmol/mg protein.

**Q.** And the “% control” value (MATE2-K; inhibitor 300 μM)?
**A.** The value was 18.1%.

**Q.** What about the “Background corrected uptake rate” value (MATE2-K; inhibitor 300 μM) of the same compound?
**A.** The value was 4.99 pmol/mg/min.

**Q.** What about the “Uptake, Control (Average ± SD)” value (MATE2-K; control HEK293 cells, inhibitor 300 μM) of the same compound?
**A.** The value was 7.34 ± 0.20 pmol/mg protein.

**Q.** Which “Papp Apical to basal (Average ± SD)” value (BCRP) does the source give for Cc1cccc(C)c1OCC(=O)N[C@@H](Cc1ccccc1)[C@@H](O)C[C@H](Cc1ccccc1)NC(=O)[C@H](C(C)C)N1CCCNC1=O [Lopinavir] here?
**A.** The value was 3.23e-05 cm/s.

**Q.** And the “Papp Basal to apical (Average ± SD)” value (BCRP)?
**A.** Its value is 37.6 ± 1.6 ×10^−6 cm/sec.

**Q.** What about the “Papp Apical to basal (Average ± SD)” value (BCRP; MDCK) of the same compound?
**A.** The value was 13.3 ± 10.0 ×10^−6 cm/sec.

**Q.** And the “Papp Basal to apical (Average ± SD)” value (BCRP; MDCK)?
**A.** The value was 20.9 ± 4.7 ×10^−6 cm/sec.

**Q.** Which “Papp A:B (Average ± SD)” value (P-gp) does the source give for C/C=C/C[C@@H](C)C(=O)[C@H]1C(=O)N[C@@H](C(C)C)C(=O)N(C)CC(=O)N(C)[C@@H](CC(C)C)C(=O)N[C@@H](C(C)C)C(=O)N(C)[C@@H](CC(C)C)C(=O)N[C@@H](C)C(=O)N[C@H](C)C(=O)N(C)[C@@H](CC(C)C)C(=O)N(C)[C@@H](CC(C)C)C(=O)N(C)[C@@H](C(C)C)C(=O)N1C [Valspodar] here?
**A.** Its value is 9.12 ± 1.34 ×10^−6 cm/sec.

**Q.** What about the “Papp B:A (Average ± SD)” value (P-gp) of the same compound?
**A.** Its value is 10.0 ± 2.5 ×10^−6 cm/sec.
